The values that follow come from US11161839B2, “2-quinolone derived inhibitors of BCL6” (Cancer Research Technology Limited, priority 2017, dated 2021).

Structures are written as SMILES.

Assay [1] addresses human BCL6 BTB domain (Trx-6xHis-BCL6) (Homo sapiens (Human), UniProt P41182). Description: HTRF in vitro assay (BCL6 BTB domain / BCOR-AF633 peptide). Format: binding. Conditions: further generated data (Table 1b), 1 nM Trx-6xHis-BCL6, 0.5 nM anti-6xHis-Terbium cryptate; for IC50: read-out: HTRF pIC50 (converted). For orientation: Time-resolved FRET reads energy transfer from a long-lived donor to a nearby acceptor.
Procedure: The % inhibition at each concentration was calculated by normalising FRET ratio to the appropriate high (DMSO with all reagents) and low (DMSO without BCL6) controls.

In assay [2] the target is BCL6-NCOR2(SMRT) corepressor protein-protein interaction (Homo sapiens (Human), UniProt P41182). Description: NanoBRET cell assay in transfected HEK293T cells. The assay is classed as cell-based. Conditions: further generated data (Table 2b); HEK293T cells, 6 hr; read-out: NanoBRET cell pIC50 (converted).
Source text: A cellular nano-Bioluminescence Resonance Energy Transfer (nanoBRET) assay (Promega NanoBRET Nano-Glo Detection System, catalogue number N1662) was used to detect inhibition of the BCL6-NCOR2(SMRT) corepressor protein-protein interaction. DNA encoding full length BCL6 and NCOR2 were inserted into pFC32K.NanoLuc and pFC14K.HaloTag vectors (Promega) to produce C-terminal tagged fusion proteins BCL6-nanoLuc and NCOR2-HaloTag, respectively. […] Frozen transfected HEK293T cells were thawed, centrifuged and freezing medium was replaced by phenol red-free OptiMEM+4% FBS (Life Technology). […] Cells were incubated for 6 hr at 37° C./5% CO2 then NanoBRET furimazine substrate (Promega) was added to give a final concentration of 10 μM. After a short centrifugation the plates were read on an Envision (Perkin Elmer) plate reader equipped with a LUM/D600 Dual mirror, Lum 450/40 nm bandpass and D605 nm longpass filters, with a 0.2 sec reading to determine the BRET ratio. The % inhibition at each test concentration was calculated by normalising the BRET ratio to the appropriate high and low controls.

`CC(Nc1cc(=O)n(CC2CCC2)c2ccc(Nc3ccnc(Cl)c3C#N)cc12)c1ncccn1` (centres unmarked) [Example 11i, 2-chloro-4((1-(cyclobutylmethyl)-2-oxo-4-((1-(pyrimidin-2-yl)ethyl)amino)-1,2-dihydroquinolin-6-yl)amino)nicotinonitrile]: in assay [1], the “HTRF pIC50” value amounted to 6.64. Further, in assay [2], the IC50 was 2090 nM.
Regarding `CC(Nc1cc(=O)n(CCO)c2ccc(Nc3ccnc(Cl)c3C#N)cc12)c1ncccn1` (centres unmarked) [Example 11j, 2-chloro-4-((1-(2-hydroxyethyl)-2-oxo-4-((1-(pyrimidin-2-yl)ethyl)amino)-1,2-dihydroquinolin-6-yl)amino)nicotinonitrile], the “HTRF pIC50” value in assay [1] worked out at 6.83. In assay [2], the IC50 was 11000 nM.
Regarding `CC(Nc1nc(=O)n(C)c2ccc(Nc3nc(N4CCC(F)(F)CC4)ncc3Cl)cc12)c1ncccn1` (centres unmarked) [Example 12a, 6-((5-Chloro-2-(4,4-difluoropiperidin-1-yl)pyrimidin-4-yl)amino)-1-methyl-4-((1-(pyrimidin-2-yl)ethyl)amino)quinazolin-2(1H)-one], the figures for the IC50 in assay [1] and in assay [2] were 191 nM and 2340 nM, respectively.
Consider `C[C@@H](Nc1cc(=O)n(C)c2ccc(Nc3nc(N4CCC(C(=O)N(C)C)CC4)ncc3Cl)cc12)C1CC1` [Example 12b, (R)-1-(5-chloro-4-((4-((1-cyclopropylethyl)amino)-1-methyl-2-oxo-1,2-dihydroquinolin-6-yl)amino)pyrimidin-2-y1)-N,N-dimethylpiperidine-4-carboxamide], for which the results for the IC50 in assay [1] and in assay [2] were 302 nM and 1290 nM, respectively.
As for `COc1cc(Nc2nc(N3CCC(C(=O)N(C)C)CC3)ncc2Cl)cc2c(NC(C)(C)c3ncccn3)cc(=O)n(C)c12` [Example 12c], the results for the IC50 in assay [1] and in assay [2] were 525 nM and 3310 nM, respectively.
Take `CC(Nc1nc(=O)n(C)c2ccc(Nc3nc(N4CCC(C(=O)N(C)C)CC4)ncc3Cl)cc12)c1ncccn1` (centres unmarked) [Example 12d, 1-(5-chloro-4-((1-methyl-2-oxo-4((1-(pyrimidin-2-yl)ethyl)amino)-1,2-dihydroquinazolin-6-yl)amino)pyrimidin-2-yl)-N,N-dimethylpiperidine-4-carboxamide]: the “HTRF pIC50” value in assay [1] is listed as 6.78. In addition, the IC50 in assay [2] was 11200 nM.
As for `C[C@@H]1CN(c2ncc(Cl)c(Nc3ccc4c(c3)c(NC(C)(C)c3ncccn3)cc(=O)n4C)n2)C[C@H](C)O1` [Example 12f, 6-((5-chloro-2-((2S,6R)-2,6-dimethylmorpholino)pyrimidin-4-yl)amino)-1-methyl-4-((2-(pyrimidin-2-yl)propan-2-yl)amino)quinolin-2(1H)-one], in assay [1], the “HTRF pIC50” value was found to be 6.57. In addition, in assay [2], the IC50 is 2450 nM.
With `Cn1c(=O)cc(NC(C)(C)c2ncccn2)c2cc(Nc3cc(Cl)nc(Cl)c3Cl)ccc21` [Example 13, 1-methyl-4-((2-(pyrimidin-2-yl)propan-2-yl)amino)-6-((2,3,6-trichloropyridin-4-yl)amino)quinolin-2(1H)-one], in assay [1], the “HTRF pIC50” value turned out to be 6.66. The IC50 in assay [2] is 1700 nM.
The corresponding values for `Cc1nc(-n2ccc(C(F)(F)F)n2)nc(Nc2ccc3c(c2)c(NC(C)(C)c2ncccn2)cc(=O)n3C)c1Cl` [Example 14a, 6-((5-chloro-6-methyl-2-(3-(trifluoromethyl)-1H-pyrazol-1-yl)pyrimidin-4-yl)amino)-1-methyl-4-((2-(pyrimidin-2-yl)propan-2-yl)amino)quinolin-2(1H)-one] are 6.66 and 3890 nM.
The corresponding values for `Cc1cc(C)n(-c2ncc(Cl)c(Nc3ccc4c(c3)c(NC(C)c3ncn(C)n3)cc(=O)n4C)n2)n1` (centres unmarked) [Example 14b, 6-((5-chloro-2-(3,5-dimethyl-1H-pyrazol-1-yl)pyrimidin-4-yl)amino)-1-methyl-4-((1-(1-methyl-1H-1,2,4-triazol-3-yl)ethyl)amino)quinolin-2(1H)-one] are 6.64 and 8320 nM.
Turning to `Cn1c(=O)cc(NC(C)(C)c2ncccn2)c2cc(Nc3nc(-n4ccc(C(F)(F)F)n4)ncc3Cl)ccc21` [Example 14d, 6-((5-chloro-2-(3-(trifluoromethyl)-1H-pyrazol-1-yl)pyrimidin-4-yl)amino)-1-methyl-4((2-(pyrimidin-2-yl)propan-2-yl)amino)quinolin-2(1H)-one], the “HTRF pIC50” value in assay [1] was 6.44. For the same molecule, the IC50 in assay [2] was 2040 nM.
The corresponding values for `COCC(C)(C)Nc1cc(=O)n(C)c2ccc(Nc3nc(-n4nc(C)cc4C)ncc3Cl)cc12` [Example 14e, 6-((5-chloro-2-(3,5-dimethyl-1H-pyrazol-1-yl)pyrimidin-4-yl)amino)-4-((1-methoxy-2-methylpropan-2-yl)amino)-1-methylquinolin-2(1H)-one] are 6.54 and 10000 nM.
The corresponding values for `COC[C@@H]1CCCN1C(=O)c1cc(Nc2ccc3c(c2)c(N[C@H](C)C2CC2)cc(=O)n3C)c(Cl)cn1` [Example 15a, 6-((5-Chloro-2-((S)-2-(methoxymethyl)pyrrolidine-1-carbonyl)pyridin-4-yl)amino)-4-(((R)-1-cyclopropylethyl)amino)-1-methylquinolin-2(1H)-one] are 6.59 and 2000 nM.
Regarding `COCCC1CCCN1C(=O)c1cc(Nc2ccc3c(c2)c(N[C@H](C)C2CC2)cc(=O)n3C)c(Cl)cn1` (some centres unmarked) [Example 15b], the “HTRF pIC50” value in assay [1] stood at 6.46. Besides, in assay [2], the IC50 was 2190 nM.
The corresponding values for `C[C@@H](Nc1cc(=O)n(C)c2ccc(Nc3cc(C(=O)N4CCC4)ncc3Cl)cc12)C1CC1` [Example 15d, (R)-6-((2-(azetidine-1-carbonyl)-5-chloropyridin-4-yl)amino)-4-((1-cyclopropylethyl)amino)-1-methylquinolin-2(1H)-one] are 6.42 and 1780 nM.
Turning to `CC(Nc1cc(=O)n(C)c2ccc(Nc3cc(N4C[C@@H](C)O[C@@H](C)C4)ncc3Cl)cc12)c1ncccn1` (stereo partly drawn) [Example 15e, 6-((5-chloro-2-((2S,6R)-2,6-dimethylmorpholino)pyridin-4-yl)amino)-1-methyl-4-((1-(pyrimidin-2-yl)ethyl)amino)quinolin-2(1H)-one], the “HTRF pIC50” value in assay [1] stood at 6.28. Also, the IC50 in assay [2] was 4270 nM.
For `C[C@@H](Nc1cc(=O)n(C)c2ccc(Nc3cc(-n4cc(CCO)cn4)ncc3Cl)cc12)C1CC1` [Example 15f, (R)-6-((5-chloro-2-(4-(2-hydroxyethyl)-1H-pyrazol-1-yl)pyridin-4-yl)amino)-4-((1-cyclopropylethyl)amino)-1-methylquinolin-2(1H)-one] the same measures were 6.58 and 2290 nM.
For `CC(Nc1cc(=O)n(C)c2ccc(Nc3cc(N4CCC(C(=O)N(C)C)CC4)ncc3Cl)cc12)c1ncccn1` (centres unmarked) [Example 15g, 1-(5-chloro-4-((1-methyl-2-oxo-4-((1-(pyrimidin-2-yl)ethyl)amino)-1,2-dihydroquinolin-6-yl)amino)pyridin-2-y1)-N,N-dimethylpiperidine-4-carboxamide] the same measures were 6.47 and 7240 nM.
With `CC(Nc1cc(=O)n(C)c2ccc(Nc3cc(N4CCC(F)(F)CC4)ncc3Cl)cc12)c1ncccn1` (centres unmarked) [Example 15h, 6-((5-chloro-2-(4,4-difluoropiperidin-1-yl)pyridin-4-yl)amino)-1-methyl-4-((1-(pyrimidin-2-yl)ethyl)amino)quinolin-2(1H)-one], the “HTRF pIC50” value in assay [1] was found to be 6.21. Further, the IC50 in assay [2] is 6920 nM.
The corresponding values for `CC(Nc1cc(=O)n(C)c2ccc(Nc3cc(-n4cc(CCO)cn4)ncc3Cl)cc12)c1ncccn1` (centres unmarked) [Example 15i, 6-((5-chloro-2-(4-(2-hydroxyethyl)-1H-pyrazol-1-yl)pyridin-4-yl)amino)-1-methyl-4-((1-(pyrimidin-2-yl)ethyl)amino)quinoline-2(1H)-one] are 6.58 and 1550 nM.
As to `CN(C)C(=O)C1CCN(c2ncc(Cl)c(Nc3ccc4c(c3)c(NC(C)(C)c3ncccn3)cc(=O)n4C)n2)CC1` [Example 16a, 1-(5-chloro-4-((1-methyl-2-oxo-4-((2-(pyrimidin-2-yl)propan-2-yl)amino)-1,2-dihydroquinolin-6-yl)amino)pyrimidin-2-yl)-N,N-dimethylpiperidine-4-carboxamide], the “HTRF pIC50” value in assay [1] is 6.58. For the same molecule, in assay [2], the IC50 is 2630 nM.
`CN(C)C(=O)C1CCN(c2ncc(Cl)c(Nc3ccc4c(c3)c(NC3(C#N)CC3)cc(=O)n4C)n2)CC1` [Example 16b, 1-(5-chloro-4-((4-((1-cyanocyclopropyl)amino)-1-methyl-2-oxo-1,2-dihydroquinolin-6-yl)amino)pyrimidin-2-y1)-N,N-dimethylpiperidine-4-carboxamide]: in assay [1], the “HTRF pIC50” value is recorded as 6.37. For the same molecule, the IC50 in assay [2] is 5010 nM.
For `COCC(C)(C)Nc1cc(=O)n(C)c2ccc(Nc3nc(N4CCC(C(=O)N(C)C)CC4)ncc3Cl)cc12` [Example 16d, 1-(5-chloro-4-((4-((1-methoxy-2-methylpropan-2-yl)amino)-1-methyl-2-oxo-1,2-dihydroquinolin-6-yl)amino)pyrimidin-2-yl)-N,N-dimethylpiperidine-4-carboxamide], the “HTRF pIC50” value in assay [1] stood at 6.25. The IC50 in assay [2] was 9120 nM.
In the case of `CC(Nc1cc(=O)n(C)c2ccc(Nc3nc(N4C[C@@H](C)O[C@@H](C)C4)ncc3Cl)cc12)c1ncccn1` (stereo partly drawn) [Example 17a, 6-((5-chloro-2-((2S,6R)-2,6-dimethylmorpholino)pyrimidin-4-yl)amino)-1-methyl-4-((1-(pyrimidin-2-yl)ethyl)amino)quinolin-2(1H)-one], the “HTRF pIC50” value in assay [1] is recorded as 6.48. Further, the IC50 in assay [2] was 1780 nM.
For the molecule `CC(Nc1cc(=O)n(C)c2ccc(Nc3nc(N4CCC(C(=O)N(C)C)CC4)ncc3Cl)cc12)c1ncccn1` (centres unmarked) [Example 17c, 1-(5-chloro-4-((-methyl-2-oxo-4-((1-(pyrimidin-2yl)ethyl)amino)-1,2-dihydroquinolin-6-yl)amino)pyrimidin-2-yl)-N,N-dimethylpiperidine-4-carboxamide], the values for the IC50 in assay [1] and in assay [2] were 339 nM and 3720 nM, respectively.
